Data from US8877799B2, “Inorganic salt complexes of vildagliptin” (Egis Gyogyszergynar Nyilvanosan Muekoedoe Reszvenytarsasag, priority 2009, dated 2014).

Experiments:
[1] = in water, after three days; pages 44 to 45 of WO 2007019255; cited from earlier work
[2] = compressibility; assay type: physicochemical

| Molecule | active ingredient detectable [1] | compressibility compared with vildagliptin base [2] |
| --- | --- | --- |
| N#C[C@@H]1CCCN1C(=O)CNC12CC3CC(CC(O)(C3)C1)C2 [vildagliptin base, 1-[2-(3-hydroxyadamant-1-yl-amino)acetyl]pyrrolidin-(2S)-carbonitrile] | 7.5% | – |
| Vildagliptin Calcium(II)-Chloride Trihydrate Complex (1:1:3) | – | compressed significantly more preferably than the vildagliptin base |
